The structures appear in SMILES notation.

Here are results for 27 compounds from patent publication US11319298B2 (Merck Sharp & Dohme Corp., priority 2016, dated 2022).

The experiment deals with T1, human M4 muscarinic acetylcholine receptor (Homo sapiens, UniProt P08173).
T1 construct: expressed in transfected cells; host or cells: CHO-K1
T1 sequence (P08173 1-479): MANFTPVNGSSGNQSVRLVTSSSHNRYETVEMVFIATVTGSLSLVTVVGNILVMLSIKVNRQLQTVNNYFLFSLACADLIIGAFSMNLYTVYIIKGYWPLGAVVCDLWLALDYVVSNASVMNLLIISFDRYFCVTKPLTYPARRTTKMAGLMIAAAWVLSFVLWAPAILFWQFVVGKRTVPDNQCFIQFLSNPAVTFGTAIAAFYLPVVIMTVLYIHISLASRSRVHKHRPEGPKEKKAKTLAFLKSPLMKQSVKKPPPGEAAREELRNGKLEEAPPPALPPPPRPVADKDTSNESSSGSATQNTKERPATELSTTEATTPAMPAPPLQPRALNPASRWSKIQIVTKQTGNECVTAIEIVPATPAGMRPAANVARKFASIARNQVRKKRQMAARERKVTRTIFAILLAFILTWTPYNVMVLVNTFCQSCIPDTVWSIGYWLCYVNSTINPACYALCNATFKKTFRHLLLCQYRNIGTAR
As to the kind of experiment: human FLIPR-based M4 PAM assay, CHO-K1 cells stably transfected with human M4 receptor and chimeric G-protein Gαqi5. The conditions noted are these: inflection point (IP) of dose response curve; acetylcholine added at 20% of maximum response; CHO-K1 human M4/Gαqi5, FLIPR Tetra. Format: cell-based. The method, then: In a typical experiment the M4 muscarinic acetylcholine receptor modulating activity of the compounds of the present invention was determined in accordance with the following experimental method. CHO-K1 cells stably transfected with human M4 receptor and chimeric G-protein Gαqi5 (Coward P, et al., Analytical Biochemistry, 270:242-248 (1999)) are thawed from liquid N2 storage, resuspended in growth medium, plated in black, clear bottom 384 well plates, and incubated 16-20 hours at 37° C., 5% CO2. On the day of assay, growth medium is removed, the cells are washed 2 times with wash buffer, and cells are incubated in dye loading buffer at 37° C., 5% CO2 for ˜1 hour. Following dye loading the cell plates are placed in a FLIPR Tetra instrument and while monitoring dye fluorescence (excitation […]), 10 uL of test substance at increasing concentrations is added, and fluorescence values are recorded for 4 min. Next, 10 uL of acetylcholine is added (final concentration calculated so as to achieve 20% of the maximum acetycholine response), and the fluorescence reading is continued for 3.5 min. In some cases, a third addition of acetylcholine (final concentration calculated to achieve 70% of the maximal acetylcholine response) is performed. The resulting dose response curves are fit to a 4 parameter logistic equation and the final result is determined as the inflection point (IP) of the curve
CHO-K1 cells stably transfected with human M4 receptor and chimeric G-protein Gαqi5 are thawed from liquid N2 storage, resuspended in growth medium, plated in black, clear bottom 384 well plates, and incubated 16-20 hours at 37° C., 5% CO2.
On the day of assay, growth medium is removed, the cells are washed 2 times with wash buffer, and cells are incubated in dye loading buffer at 37° C., 5% CO2 for ˜1 h. Following dye loading the cell plates are placed in a FLIPR Tetra instrument and while monitoring dye fluorescence ([…]), 10 uL of test substance at increasing concentrations is added, and fluorescence values are recorded for 4 min. Next, 10 uL of acetylcholine is added (final concentration calculated so as to achieve 20% of the maximum acetycholine response), and the fluorescence reading is continued for 3.5 min. In some cases, a third addition of acetylcholine (final concentration calculated to achieve 70% of the maximal acetylcholine response) is performed.
For the compound `Cc1cc(C(=O)N[C@H]2CCc3cccnc3C2)nnc1N1CCC(Oc2cccc(C#N)c2)CC1` [Example 164A, (S)-6-[4-(3-cyanophenoxy)piperidin-1-yl]-5-methyl-N-(5,6,7,8-tetrahydroquinolin-7-yl)pyridazine-3-carboxamide], the midpoint of the response, the EC50, lay at 434 nM.
To `COc1ccc(OC2CCN(c3nnc(C(=O)NCc4ccncc4)cc3C)CC2)cn1` [Example 116, 6-{4-[(6-methoxypyridin-3-yl)oxy]piperidin-1-yl}-5-methyl-N-(pyridin-4-ylmethyl)pyridazine-3-carboxamide] belongs 79 nM.
Under `COc1ccc(OC2CCN(c3nnc(C(=O)NCCc4cn[nH]c4)cc3C)CC2)cn1` [Example 123, 6-{4-[(6-methoxypyridin-3-yl)oxy]piperidin-1-yl}-5-methyl-N-[2-(1H-pyrazol-4-yl)ethyl]pyridazine-3-carboxamide] stands 101 nM; under `COc1ccc(OC2CCN(c3nnc(C(=O)NCc4ccn(C)n4)cc3C)CC2)cn1` [Example 134, 6-{4-[(6-methoxypyridin-3-yl)oxy]piperidin-1-yl}-5-methyl-N-[(1-methyl-1H-pyrazol-3-yl)methyl]pyridazine-3-carboxamide], 151 nM; under `COC1CCN(c2nnc(C(=O)NCc3ccncc3)cc2C)CC1` [Example 7, 6-(4-methoxypiperidin-1-yl)-5-methyl-N-(pyridin-4-ylmethyl)pyridazine-3-carboxamide], 1240 nM.
`COc1ccc(OC2CCN(c3nnc(-c4noc(C)n4)cc3C)CC2)cn1` [Example 264, 3-(6-(4-((6-Methoxypyridin-3-yl)oxy)piperidin-1-yl)-5-methylpyridazin-3-yl)-5-methyl-1,2,4-oxadiazole] registered an EC50 of 399 nM.
To `COc1ccc(OC2CCN(c3nnc(C(=O)NCCc4ccccc4Cl)cc3C)CC2)cn1` [Example 197, N-[2-(2-chlorophenyl)ethyl]-6-{4-[(6-methoxypyridin-3-yl)oxy]piperidin-1-yl}-5-methylpyridazine-3-carboxamide] belongs 91 nM; to `CNC(=O)c1cc(C)c(N2CCC(Oc3ccc(OC)nc3)CC2)nc1C` [Example 189, 6-{4-[(6-methoxypyridin-3-yl)oxy]piperidin-1-yl}-N,2,5-trimethylpyridine-3-carboxamide], 1870 nM.
To `Cc1cc(C(=O)NCc2ccncc2)nnc1N1CCC(Oc2ccc3c(c2)C(=O)N(C)C3)CC1` [Example 135, 5-methyl-6-{4-[(2-methyl-3-oxo-2,3-dihydro-1H-isoindol-5-yl)oxy]piperidin-1-yl}-N-(pyridin-4-ylmethyl)pyridazine-3-carboxamide] belongs 158 nM; to `COc1ccc(OC2CCN(c3nnc(C(=O)NC4CCc5cccnc54)cc3C)CC2)cn1` (stereo not drawn) [Example 170, N-(6,7-dihdyro-5H-cyclopenta[b]pyridin-7-yl)-6-{4-[(6-methoxypyridin-3-yl)oxy]piperidin-1-yl}-5-methylpyridazine-3-carboxamide], 465 nM.
`Cc1c(Cl)nc(CO)nc1N1CCC(Oc2cccc(C#N)c2)C(F)(F)C1` (stereo not drawn) [Example 23, 3-((1-(6-chloro-2-(hydroxymethyl)-5-methylpyrimidin-4-yl)-3,3-difluoropiperidin-4-yl)oxy)benzonitrile] yielded an EC50 of 75 nM. Against the preceding compound, the EC50 is about 6.2-fold lower.
To `COc1ccc(OC2CCN(c3nnc(C(=O)NC45CC(C4)C5)cc3C)CC2)cn1` [Example 147, N-bicyclo[1.1.1]pent-1-yl-6-{4-[(6-methoxypyridin-3-yl)oxy]piperidin-1-yl}-5-methylpyridazine-3-carboxamide] belongs 209 nM; to `COc1ccc(OC2CCN(c3nc(C(=O)N[C@@H]4CCCc5ccccc54)nc(Cl)c3C)CC2)cn1` [Example 223, (R)-4-chloro-6-(4-((6-methoxypyridin-3-yl)oxy)piperidin-1-yl)-5-methyl-N-(1,2,3,4-tetrahydronaphthalen-1-yl)pyrimidine-2-carboxamide], 3410 nM.
Under `COc1ccc(OC2CCN(c3nnc(C(=O)NC4CC4)cc3C)CC2)cn1` [Example 161, N-cyclopropyl-6-{4-[(6-methoxypyridin-3-yl)oxy]piperidin-1-yl}-5-methylpyridazine-3-carboxamide] stands 302 nM; under `COc1ccc(OC2CCN(c3nnc(C(=O)NCc4ccc(S(C)(=O)=O)cc4)cc3C)CC2)cn1` [Example 174, 6-{4-[(6-methoxypyridin-3-yl)oxy]piperidin-1-yl}-5-methyl-N-[4-(methylsulfonyl)benzyl]pyridazine-3-carboxamide], 563 nM.
Under `Cc1cc(C(=O)N[C@@H]2CCc3ncccc3C2)nnc1N1CCC(Oc2cccc(C#N)c2)CC1` [Example 130B, (R)-6-[4-(3-cyanophenoxy)piperidin-1-yl]-5-methyl-N-(5,6,7,8-tetrahydroquinolin-6-yl)pyridazine-3-carboxamide] stands 254 nM.
As to `COc1ccc(OC2CCN(c3nnc(C(=O)NCc4cc(F)c(OC)c(F)c4)cc3C)CC2)cn1` [Example 181, N-(3,5-difluoro-4-methoxybenzyl)-6-{4-[(6-methoxypyridin-3-yl)oxy]piperidin-1-yl}-5-methylpyridazine-3-carboxamide], the EC50 came out at 871 nM.
To `Cc1c(Cl)nc(CO)nc1N1CCC(Oc2ccc3c(c2)OCCN3)CC1` [Example 96, (4-Chloro-6-(4-((3,4-dihydro-2H-benzo[b][1,4]oxazin-7-yl)oxy)piperidin-1-yl)-5-methylpyrimidin-2-yl)methanol] belongs 37 nM; to `COc1ccc(O[C@@H]2CCN(c3ncnc(Cl)c3C)C[C@@H]2F)cc1` (relative stereo) [Example 13, 4-chloro-6-((cis)-3-fluoro-4-(4-methoxyphenoxy)piperidin-1-yl)-5-methylpyrimidine], 110 nM; to `Cc1nc(Cl)c(C)c(N2CCC(Oc3cccnc3)CC2)n1` [Example 12, 4-chloro-2,5-dimethyl-6-(4-(pyridin-3-yloxy)piperidin-1-yl)pyrimidine], 292 nM.
Under `Cc1cc(C(=O)NCc2ccncc2)nnc1N1CCC(Oc2ccc3[nH]ccc3c2)CC1` [Example 110, 6-[4-(1H-indol-5-yloxy)piperidin-1-yl]-5-methyl-N-(pyridin-4-ylmethyl)pyridazine-3-carboxamide] stands 35 nM; under `Cc1ncc(C)c(N2CCC(Oc3ccc4c(c3)C(=O)OC4)CC2)n1` [Example 99, 6-((1-(2,5-Dimethylpyrimidin-4-yl)piperidin-4-yl)oxy)isobenzofuran-1(31-1)-one], 319 nM.
To `Cc1cc(C(=O)NCc2cnsc2)nnc1N1CCC(Oc2cccc(C#N)c2)CC1` [Example 192, 6-[4-(3-cyanophenoxy)piperidin-1-yl]-N-(isothiazol-4-ylmethyl)-5-methypyridazine-3-carboxamide] belongs 22 nM.
In the case of `COc1ccc(OC2CCN(c3nnc(C(=O)NCCn4ccnc4)cc3C)CC2)cn1` [Example 162, N-[2-(1H-imidazol-1-yl)ethyl]-6-{4-[(6-methoxypyridin-3-yl)oxy]piperidin-1-yl}-5-methylpyridazine-3-carboxamide], it took 306 nM to reach a half-maximal effect (EC50).
In the case of `COc1ccc(OC2CCN(c3nc(SC)nc(Cl)c3C)CC2)cc1` [Example 16, 4-chloro-6-(4-(4-methoxyphenoxy)piperidin-1-yl)-5-methyl-2-(methylthio)pyrimidine], the EC50 was found to be 1830 nM.
Under `COc1ccc(OC2CCN(c3ncnc(Cl)c3C)CC2)cn1` [Example 49, 4-chloro-6-(4-((6-methoxypyridin-3-yl)oxy)piperidin-1-yl)-5-methylpyrimidine] stands 44 nM; under `COc1ccc(OC2CCN(c3nnc(C(=O)NC4(C)CCCC4)cc3C)CC2)cn1` [Example 185, 6-{4-[(6-methoxypyridin-3-yl)oxy]piperidin-1-yl}-5-methyl-N-(1-methylcyclopentyl)pyridazine-3-carboxamide], 1040 nM.
